Experimental data reported in PMC10611828 (European Journal of Nuclear Medicine and Molecular Imaging, 2023).
Where two headings read alike, the source gives them in different places.

Columns and labels:
[1] = Stability in mouse serum at 37 °C (radio-HPLC); assay type: in vitro ADME
Protocol: (§1) The ^177Lu-labeled peptides were incubated in 300-μL phosphate buffered saline (PBS; Gibco, ThermoFisher, The Netherlands) at 37 °C, and their stability was verified after 1, 4, 24, 48, and 72 h by radio-HPLC (Supplementary Fig. 2). The stability in serum was determined by incubating the radiolabeled compounds into 300 μL of mouse serum (Invitrogen, USA) or human serum (Sigma Aldrich, USA) at 37 °C (Supplementary Fig. 3, 4). At each time point post-incubation, 35 μL of the mixture was added to an Eppendorf tube, and the proteins were precipitated by adding an equal volume of acetonitrile. The tubes were centrifuged at 16,000 rpm, 4 °C for 20 min, and the stability was monitored by radio-HPLC, expressed as the RCP at the different time points.

[2] = Stability in human serum at 37 °C (radio-HPLC); assay type: in vitro ADME
Protocol: as §1

[3] = In vivo biodistribution and clearance in PC-3 tumor-bearing mice; conditions: male, NMRI-Foxn1 nu/nu, mouse, iv, total radioactivity, i.v.; for tissue uptake at 1 h: 1 h p.i.; for tissue uptake at 4 h: 4 h p.i.; for tissue uptake at 24 h: 24 h p.i.; for tissue uptake at 48 h: 48 h p.i.; for tissue uptake at 72 h: 72 h p.i.
Protocol: All animal experiments were approved by the Animal Welfare Committee of the Erasmus MC, and all experiments were conducted in accordance to institutional guidelines.
At 1, 4, 24, 48, and 72 h post-injection (p.i.), animals were sedated using 2.5% isoflurane in oxygen, and blood was collected via the orbital vein, after which the animals were euthanized using cervical dislocation. Subsequently, the following organs were collected; the tail, tumor, spleen, liver, pancreas, small intestine, colon, coecum, kidneys, lung, and muscle. […] The collected tumor and organs were weighed, and the radioactivity was measured in the gamma counter. The biodistribution data are expressed as percentage injected dose per gram of tissue (% ID/g). Animal numbers per group are indicated in Supplementary Table 1 and 2.
Statistical analysis was performed using Graphpad Prism version 9.0.0. Outliers were identified using the ROUT method with a Q value of 1%. IC50 curves were determined using non-linear regression.

[4] = design: method as in PMID 35951084; conditions: cited from earlier work
[5] = 1 h, read-out: intact radiolabeled ligand (RCP)
[6] = 4 h, read-out: intact radiolabeled ligand (RCP)
[7] = 24 h, read-out: intact radiolabeled ligand (RCP)
[8] = 48 h, read-out: intact radiolabeled ligand (RCP)
[9] = 72 h, read-out: intact radiolabeled ligand (RCP)
[10] = PC-3 tumor, read-out: % uptake PC-3 tumor
[11] = blood, read-out: % uptake blood
[12] = gastrointestinal tract, read-out: % uptake gastrointestinal tract
[13] = kidney, read-out: % uptake kidney
[14] = liver, read-out: % uptake liver
[15] = muscle, read-out: % uptake muscle
[16] = pancreas, read-out: % uptake pancreas
[17] = prostate, read-out: % uptake prostate
[18] = spleen, read-out: % uptake spleen

CC(C)CC(CC(C)C)NC(=O)[C@H](Cc1cnc[nH]1)NC(=O)CNC(=O)[C@@H](NC(=O)[C@H](C)NC(=O)[C@H](Cc1c[nH]c2ccccc12)NC(=O)[C@H](CCC(N)=O)NC(=O)[C@@H](Cc1ccccc1)NC(=O)COCC(=O)Nc1ccc(CNC(=O)CN2CCN(CC(=O)O)CCN(CC(=O)O)CCN(CC(=O)O)CC2)cc1)C(C)C [[^177Lu]Lu-NeoB, metal not drawn]
intact radiolabeled ligand (RCP) ([1]; 0 h): 97.1 ± 0.3%
remaining at 1 h [1, 5]: 94.3 ± 0.7%
remaining at 4 h [1, 6]: 84.1 ± 1.1%
remaining at 24 h [1, 7]: 27.9 ± 2.3%
remaining at 48 h [1, 8]: 14.2 ± 1%
remaining at 72 h [1, 9]: 4.4 ± 1.2%
intact radiolabeled ligand (RCP) ([2]; 0 h): 97.1 ± 0.3%
remaining at 1 h [2, 5]: 97.9 ± 0.2%
remaining at 4 h [2, 6]: 97.8 ± 0.3%
remaining at 24 h [2, 7]: 89.2 ± 0.5%
remaining at 48 h [2, 8]: 81 ± 0.7%
remaining at 72 h [2, 9]: 75.6 ± 1.7%
tissue uptake at 1 h [3, 10]: 9.38 ± 0.81 %ID/g
tissue uptake at 4 h [3, 10]: 9.98 ± 2.64 %ID/g
tissue uptake at 24 h [3, 10]: 8.05 %ID/g
tissue uptake at 48 h [3, 10]: 4.77 %ID/g
tissue uptake at 72 h [3, 10]: 2.88 %ID/g
tissue uptake at 1 h [3, 11]: 1.15 %ID/g
tissue uptake at 4 h [3, 11]: 0.11 %ID/g
tissue uptake at 24 h [3, 11]: 0.01 %ID/g
tissue uptake at 48 h [3, 11]: 0.01 %ID/g
tissue uptake at 1 h [3, 12]: 3.08 %ID/g
tissue uptake at 4 h [3, 12]: 1.91 %ID/g
tissue uptake at 24 h [3, 12]: 0.09 %ID/g
tissue uptake at 48 h [3, 12]: 0.26 %ID/g
tissue uptake at 72 h [3, 12]: 0.15 %ID/g
tissue uptake at 1 h [3, 13]: 2.68 %ID/g
tissue uptake at 4 h [3, 13]: 0.86 %ID/g
tissue uptake at 24 h [3, 13]: 0.1 %ID/g
tissue uptake at 48 h [3, 13]: 0.06 %ID/g
tissue uptake at 72 h [3, 13]: 0.04 %ID/g
tissue uptake at 1 h [3, 14]: 3.35 %ID/g
tissue uptake at 4 h [3, 14]: 0.54 %ID/g
tissue uptake at 24 h [3, 14]: 0.12 %ID/g
tissue uptake at 48 h [3, 14]: 0.08 %ID/g
tissue uptake at 72 h [3, 14]: 0.06 %ID/g
tissue uptake at 1 h ([3]; lung, read-out: % uptake lungs): 0.69 %ID/g
tissue uptake at 4 h ([3]; lung, read-out: % uptake lungs): 0.09 %ID/g
tissue uptake at 24 h ([3]; lung, read-out: % uptake lungs): 0.02 %ID/g
tissue uptake at 48 h ([3]; lung, read-out: % uptake lungs): 0.01 %ID/g
tissue uptake at 72 h ([3]; lung, read-out: % uptake lungs): 0.01 %ID/g
tissue uptake at 1 h [3, 15]: 0.13 %ID/g
tissue uptake at 4 h [3, 15]: 0.05 %ID/g
tissue uptake at 1 h [3, 16]: 30.7 ± 4.29 %ID/g
tissue uptake at 4 h [3, 16]: 21.4 ± 3.05 %ID/g
tissue uptake at 24 h [3, 16]: 4.14 %ID/g
tissue uptake at 48 h [3, 16]: 0.83 %ID/g
tissue uptake at 72 h [3, 16]: 0.35 %ID/g
tissue uptake at 1 h [3, 17]: 0.7 %ID/g
tissue uptake at 4 h [3, 17]: 0.08 %ID/g
tissue uptake at 24 h [3, 17]: 0.02 %ID/g
tissue uptake at 48 h [3, 17]: 0.01 %ID/g
tissue uptake at 72 h [3, 17]: 0.01 %ID/g
tissue uptake at 1 h [3, 18]: 0.43 %ID/g
tissue uptake at 4 h [3, 18]: 0.15 %ID/g
tissue uptake at 24 h [3, 18]: 0.04 %ID/g
tissue uptake at 48 h [3, 18]: 0.02 %ID/g
tissue uptake at 72 h [3, 18]: 0.01 %ID/g
tolerability ([4]; after repeated radiotracer administration): well tolerated
hematological effects after treatment [4]: no lasting hematological effects
